Target: T1, GABAB receptor (GABABR1a/GABABR2 heterodimer) (Homo sapiens, UniProt O75899+Q9UBS5)
T1 construct: expressed in transfected cells
Test: [35S]-GTPγS binding assay, potency of positive allosteric modulator on GABA EC50
Assay type: biochemical
Settings: potency of the modulator: concentration required to reduce GABA's EC50 by 50%
Source text: GABABR1a and GABABR2 were cloned from human brain cDNA and subcloned into pCI-Neo (Promega) and pALTER-1 (Promega), respectively. A GABABR1a-Gαqi5 fusion protein expression vector was constructed using the pCI-Neo-GABABR1a cDNA plasmid and pLEC1-Gαqi5 (Molecular Devices, CA). In order to make the Gαqi5 pertussis toxin insensitive, Cys356 was mutated to Gly using standard PCR methodology with the primers 5′-[…]-3 (forward) and 5′-GCGGCCG […]-3′ (reverse). The Gαqi5mut cDNA was ligated into the BamnHI and NotI sites of pcDNA3.0 (Invitrogen). The GABABR1a coding sequence was amplified by PCR from pCI-Neo-GABABR1a using the primers, 5′-[…]-3′ (forward) and 5′-[…]-3′ (reverse) and subdloned into the BamHI site of pcDNA3.0-Gαqi5mut.
For generation of stable cell lines, CHO-K1 cells were grown in Nut mix F-12 (Ham) media supplemented with 10% FBS, 100 U/ml Penicillin and 100 μg/nl Streptomycin at 37° C. in a humidified CO2-incubator. […]
[^35S]-GTPγS binding assays were performed at 30° C. for 45 min in membrane buffer (100 mM NaCl, […], 1 mM EDTA, 50 mM HEPES, pH 7.4) containing 0.025 μg/μl of membrane protein (prepared from the cell lines described above) with 0.01% bovine serum albumin (fatty acid free), 10 μM GDP, 100 μM DTT and 0.53 nM [^35S]-GTPγS (Amersham-Pharmacia Biotech) in a final volume of 200 μl. Nonspecific binding was determined in the presence of 20 μM GTPγS. […]

T1 sequence (Q9UBS5 15-961 limits assumed): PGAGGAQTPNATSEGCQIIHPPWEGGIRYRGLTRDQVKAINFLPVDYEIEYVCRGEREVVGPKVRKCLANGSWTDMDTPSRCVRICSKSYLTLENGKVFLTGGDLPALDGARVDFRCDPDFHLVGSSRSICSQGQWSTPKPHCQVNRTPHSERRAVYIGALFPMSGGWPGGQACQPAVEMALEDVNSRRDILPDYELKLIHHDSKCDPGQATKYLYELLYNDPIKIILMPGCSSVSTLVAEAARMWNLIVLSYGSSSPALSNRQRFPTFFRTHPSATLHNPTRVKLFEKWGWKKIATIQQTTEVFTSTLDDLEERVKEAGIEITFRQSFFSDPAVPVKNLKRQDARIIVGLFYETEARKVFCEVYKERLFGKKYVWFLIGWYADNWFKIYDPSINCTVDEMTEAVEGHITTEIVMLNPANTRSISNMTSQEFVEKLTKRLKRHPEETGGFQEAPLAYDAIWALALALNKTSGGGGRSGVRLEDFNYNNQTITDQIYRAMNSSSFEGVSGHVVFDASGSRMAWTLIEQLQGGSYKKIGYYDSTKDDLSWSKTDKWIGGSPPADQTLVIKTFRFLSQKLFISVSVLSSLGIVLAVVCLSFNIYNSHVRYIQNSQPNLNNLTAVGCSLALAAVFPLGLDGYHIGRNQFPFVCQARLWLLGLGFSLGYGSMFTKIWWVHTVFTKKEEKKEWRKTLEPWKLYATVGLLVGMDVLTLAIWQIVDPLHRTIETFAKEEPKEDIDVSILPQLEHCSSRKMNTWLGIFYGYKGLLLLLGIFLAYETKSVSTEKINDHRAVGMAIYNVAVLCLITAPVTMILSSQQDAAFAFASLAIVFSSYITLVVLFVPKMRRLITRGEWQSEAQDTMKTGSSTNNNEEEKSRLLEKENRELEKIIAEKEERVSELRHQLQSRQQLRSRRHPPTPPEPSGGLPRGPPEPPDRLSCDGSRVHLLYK
T1 sequence (O75899 42-941): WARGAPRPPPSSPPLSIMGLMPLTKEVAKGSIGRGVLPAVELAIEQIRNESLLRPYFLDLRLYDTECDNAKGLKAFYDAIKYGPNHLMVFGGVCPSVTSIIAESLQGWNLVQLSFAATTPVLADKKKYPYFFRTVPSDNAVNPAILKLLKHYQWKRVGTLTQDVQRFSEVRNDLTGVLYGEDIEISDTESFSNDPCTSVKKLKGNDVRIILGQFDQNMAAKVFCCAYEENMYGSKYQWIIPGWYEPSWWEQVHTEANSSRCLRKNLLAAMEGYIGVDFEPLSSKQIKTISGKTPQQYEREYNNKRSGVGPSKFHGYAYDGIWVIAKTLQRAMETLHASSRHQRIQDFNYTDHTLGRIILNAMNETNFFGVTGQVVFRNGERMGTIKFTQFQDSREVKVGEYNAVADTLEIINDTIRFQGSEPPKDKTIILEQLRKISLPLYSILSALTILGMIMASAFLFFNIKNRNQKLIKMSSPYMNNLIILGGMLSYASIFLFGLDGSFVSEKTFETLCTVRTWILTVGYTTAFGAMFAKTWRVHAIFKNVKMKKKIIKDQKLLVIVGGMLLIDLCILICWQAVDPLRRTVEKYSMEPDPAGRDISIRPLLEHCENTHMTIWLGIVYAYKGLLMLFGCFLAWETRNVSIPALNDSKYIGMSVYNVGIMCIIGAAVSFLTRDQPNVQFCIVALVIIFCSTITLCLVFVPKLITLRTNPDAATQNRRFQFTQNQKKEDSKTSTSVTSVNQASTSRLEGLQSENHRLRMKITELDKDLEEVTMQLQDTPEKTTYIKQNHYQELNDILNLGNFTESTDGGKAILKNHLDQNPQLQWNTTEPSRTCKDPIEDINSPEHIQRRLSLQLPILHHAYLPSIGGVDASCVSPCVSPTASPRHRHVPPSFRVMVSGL

Row | EC50 | SMILES
1 | 2270 nM | CN(C)c1nc(NC(=S)C2COc3ccccc3O2)c(C(=O)OC(C)(C)C)n1-c1ccccc1 (centres unmarked) [Example 6, tert-butyl 4-[(2,3-dihydro-1,4-benzodioxin-2-ylcarbonothioyl)amino]-2-(dimethylamino)-1-phenyl-1H-imidazole-5-carboxylate]
2 | 2380 nM | CN(C)c1nc(/N=C(/c2ccc(Cl)cc2)N2CCCC2)c(C(=O)OC(C)(C)C)n1-c1ccccc1 [Example 2, tert-butyl 4-{[(1Z)-(4-chlorophenyl)(pyrrolidin-1-yl)methylene]amino}-2-(dimethylamino)-1-phenyl-1H-imidazole-5-carboxylate]

From patent US7745474B2, “Imidazole derivatives for the treatment of gastrointestinal disorders” (AstraZeneca AB, priority 2005, dated 2010)
